# Laboratory results from ChEMBL document CHEMBL4052714, “Synthesis and antibacterial activity of novel 4″-O-(1-aralkyl-1,2,3-triazol-4-methyl-carbamoyl) azithromycin analogs” (2017).
# Assays:
# Type in all cases: functional
# Streptococcus pneumoniae [1] = experiment: Antibacterial activity against erythromycin-susceptible Streptococcus pneumoniae ATCC 49619
# Streptococcus pneumoniae [2] = experiment: Antibacterial activity against erythromycin-resistant Streptococcus pneumoniae AB11 expressing ermB/mefA gene
# Staphylococcus aureus [3] = experiment: Antibacterial activity against erythromycin-susceptible Staphylococcus aureus ATCC 25923
# Streptococcus pyogenes [4] = experiment: Antibacterial activity against erythromycin-susceptible Streptococcus pyogenes isolate S2
# Pseudomonas aeruginosa = experiment: Antibacterial activity against Pseudomonas aeruginosa ATCC 27853
# Streptococcus pneumoniae [5] = experiment: Antibacterial activity against erythromycin-resistant Streptococcus pneumoniae B1 expressing ermB gene
# Streptococcus pyogenes [6] = experiment: Antibacterial activity against erythromycin-resistant Streptococcus pyogenes isolate R2
# Escherichia coli = experiment: Antibacterial activity against Escherichia coli ATCC 25922
# Staphylococcus aureus [7] = experiment: Antibacterial activity against methicillin-susceptible Staphylococcus aureus ATCC 29213
# Streptococcus pneumoniae [8] = experiment: Antibacterial activity against erythromycin-resistant Streptococcus pneumoniae A22072 expressing mefA gene
Structure (SMILES),MIC (Streptococcus pneumoniae [1]),MIC (Streptococcus pneumoniae [2]),MIC (Staphylococcus aureus [3]),MIC (Streptococcus pyogenes [4]),MIC (Pseudomonas aeruginosa),MIC (Streptococcus pneumoniae [5]),MIC (Streptococcus pyogenes [6]),MIC (Escherichia coli),MIC (Staphylococcus aureus [7]),MIC (Streptococcus pneumoniae [8])
CC[C@H]1OC(=O)[C@H](C)[C@@H](O[C@H]2C[C@@](C)(OC)[C@@H](OC(=O)NCc3cn(Cc4ccccc4F)nn3)[C@H](C)O2)[C@H](C)[C@@H](O[C@@H]2O[C@H](C)C[C@H](N(C)C)[C@H]2O)[C@](C)(O)C[C@@H](C)CN(C)[C@H](C)[C@H]2OC(=O)O[C@@]21C,0.5 µg/mL,0.25 µg/mL,4 µg/mL,0.125 µg/mL,64 µg/mL,2 µg/mL,128 µg/mL,128 µg/mL,32 µg/mL,1 µg/mL
CC[C@H]1OC(=O)[C@H](C)[C@@H](O[C@H]2C[C@@](C)(OC)[C@@H](OC(=O)NCc3cn(Cc4ccc(Cl)cc4)nn3)[C@H](C)O2)[C@H](C)[C@@H](O[C@@H]2O[C@H](C)C[C@H](N(C)C)[C@H]2O)[C@](C)(O)C[C@@H](C)CN(C)[C@H](C)[C@H]2OC(=O)O[C@@]21C,1 µg/mL,4 µg/mL,4 µg/mL,0.125 µg/mL,64 µg/mL,8 µg/mL,64 µg/mL,64 µg/mL,32 µg/mL,1 µg/mL
CC[C@H]1OC(=O)[C@H](C)[C@@H](O[C@H]2C[C@@](C)(OC)[C@@H](OC(=O)NCc3cn(Cc4ccccc4)nn3)[C@H](C)O2)[C@H](C)[C@@H](O[C@@H]2O[C@H](C)C[C@H](N(C)C)[C@H]2O)[C@](C)(O)C[C@@H](C)CN(C)[C@H](C)[C@H]2OC(=O)O[C@@]21C,0.5 µg/mL,4 µg/mL,4 µg/mL,0.06 µg/mL,64 µg/mL,8 µg/mL,128 µg/mL,128 µg/mL,32 µg/mL,8 µg/mL
CC[C@H]1OC(=O)[C@H](C)[C@@H](O[C@H]2C[C@@](C)(OC)[C@@H](OC(=O)NCc3cn(Cc4ccc(C)cc4)nn3)[C@H](C)O2)[C@H](C)[C@@H](O[C@@H]2O[C@H](C)C[C@H](N(C)C)[C@H]2O)[C@](C)(O)C[C@@H](C)CN(C)[C@H](C)[C@@H](OC(=O)NCc2ccccc2)[C@]1(C)O,0.125 µg/mL,0.25 µg/mL,0.5 µg/mL,< 0.002 µg/mL,32 µg/mL,0.25 µg/mL,32 µg/mL,32 µg/mL,16 µg/mL,0.125 µg/mL
CC[C@H]1OC(=O)[C@H](C)[C@@H](O[C@H]2C[C@@](C)(OC)[C@@H](OC(=O)NCc3cn(Cc4ccccc4)nn3)[C@H](C)O2)[C@H](C)[C@@H](O[C@@H]2O[C@H](C)C[C@H](N(C)C)[C@H]2O)[C@](C)(O)C[C@@H](C)CN(C)[C@H](C)[C@@H](OC(=O)NCc2ccncc2)[C@]1(C)O,0.5 µg/mL,0.25 µg/mL,1 µg/mL,0.03 µg/mL,64 µg/mL,0.125 µg/mL,32 µg/mL,32 µg/mL,32 µg/mL,0.06 µg/mL
CC[C@H]1OC(=O)[C@H](C)[C@@H](O[C@H]2C[C@@](C)(OC)[C@@H](OC(=O)NCc3cn(Cc4cccc(Cl)c4)nn3)[C@H](C)O2)[C@H](C)[C@@H](O[C@@H]2O[C@H](C)C[C@H](N(C)C)[C@H]2O)[C@](C)(O)C[C@@H](C)CN(C)[C@H](C)[C@H]2OC(=O)O[C@@]21C,1 µg/mL,1 µg/mL,4 µg/mL,0.06 µg/mL,64 µg/mL,4 µg/mL,16 µg/mL,128 µg/mL,32 µg/mL,0.5 µg/mL
CC[C@H]1OC(=O)[C@H](C)[C@@H](O[C@H]2C[C@@](C)(OC)[C@@H](OC(=O)NCc3cn(Cc4ccccc4)nn3)[C@H](C)O2)[C@H](C)[C@@H](O[C@@H]2O[C@H](C)C[C@H](N(C)C)[C@H]2O)[C@](C)(O)C[C@@H](C)CN(C)[C@H](C)[C@@H](OC(=O)NCCc2ccccc2)[C@]1(C)O,0.125 µg/mL,0.25 µg/mL,0.25 µg/mL,< 0.002 µg/mL,8 µg/mL,0.25 µg/mL,32 µg/mL,16 µg/mL,16 µg/mL,0.125 µg/mL
CC[C@H]1OC(=O)[C@H](C)[C@@H](O[C@H]2C[C@@](C)(OC)[C@@H](OC(=O)NCc3cn(Cc4ccc(F)cc4)nn3)[C@H](C)O2)[C@H](C)[C@@H](O[C@@H]2O[C@H](C)C[C@H](N(C)C)[C@H]2O)[C@](C)(O)C[C@@H](C)CN(C)[C@H](C)[C@H]2OC(=O)O[C@@]21C,1 µg/mL,4 µg/mL,4 µg/mL,0.125 µg/mL,64 µg/mL,8 µg/mL,32 µg/mL,128 µg/mL,32 µg/mL,1 µg/mL
CC[C@H]1OC(=O)[C@H](C)[C@@H](O[C@H]2C[C@@](C)(OC)[C@@H](OC(=O)NCc3cn(Cc4c(Cl)cccc4Cl)nn3)[C@H](C)O2)[C@H](C)[C@@H](O[C@@H]2O[C@H](C)C[C@H](N(C)C)[C@H]2O)[C@](C)(O)C[C@@H](C)CN(C)[C@H](C)[C@@H](OC(=O)NCc2ccccc2)[C@]1(C)O,0.125 µg/mL,0.25 µg/mL,0.25 µg/mL,< 0.002 µg/mL,32 µg/mL,0.25 µg/mL,64 µg/mL,32 µg/mL,16 µg/mL,0.25 µg/mL
CC[C@H]1OC(=O)[C@H](C)[C@@H](O[C@H]2C[C@@](C)(OC)[C@@H](OC(=O)NCc3cn(Cc4ccc(Cl)cc4Cl)nn3)[C@H](C)O2)[C@H](C)[C@@H](O[C@@H]2O[C@H](C)C[C@H](N(C)C)[C@H]2O)[C@](C)(O)C[C@@H](C)CN(C)[C@H](C)[C@H]2OC(=O)O[C@@]21C,1 µg/mL,2 µg/mL,4 µg/mL,0.125 µg/mL,64 µg/mL,4 µg/mL,32 µg/mL,128 µg/mL,32 µg/mL,1 µg/mL
CC[C@H]1OC(=O)[C@H](C)[C@@H](O[C@H]2C[C@@](C)(OC)[C@@H](OC(=O)NCc3cn(C4CCCCC4)nn3)[C@H](C)O2)[C@H](C)[C@@H](O[C@@H]2O[C@H](C)C[C@H](N(C)C)[C@H]2O)[C@](C)(O)C[C@@H](C)CN(C)[C@H](C)[C@H]2OC(=O)O[C@@]21C,1 µg/mL,4 µg/mL,16 µg/mL,0.25 µg/mL,64 µg/mL,8 µg/mL,32 µg/mL,128 µg/mL,64 µg/mL,1 µg/mL
CC[C@H]1OC(=O)[C@H](C)[C@@H](O[C@H]2C[C@@](C)(OC)[C@@H](OC(=O)NCc3cn(Cc4cccc(F)c4)nn3)[C@H](C)O2)[C@H](C)[C@@H](O[C@@H]2O[C@H](C)C[C@H](N(C)C)[C@H]2O)[C@](C)(O)C[C@@H](C)CN(C)[C@H](C)[C@H]2OC(=O)O[C@@]21C,1 µg/mL,0.5 µg/mL,4 µg/mL,0.125 µg/mL,64 µg/mL,4 µg/mL,128 µg/mL,128 µg/mL,32 µg/mL,4 µg/mL
CC[C@H]1OC(=O)[C@H](C)[C@@H](O[C@H]2C[C@@](C)(OC)[C@@H](OC(=O)NCc3cn(Cc4ccc([N+](=O)[O-])cc4)nn3)[C@H](C)O2)[C@H](C)[C@@H](O[C@@H]2O[C@H](C)C[C@H](N(C)C)[C@H]2O)[C@](C)(O)C[C@@H](C)CN(C)[C@H](C)[C@H]2OC(=O)O[C@@]21C,1 µg/mL,0.5 µg/mL,4 µg/mL,0.008 µg/mL,64 µg/mL,4 µg/mL,128 µg/mL,64 µg/mL,32 µg/mL,4 µg/mL
CC[C@H]1OC(=O)[C@H](C)[C@@H](O[C@H]2C[C@@](C)(OC)[C@@H](OC(=O)NCc3cn(Cc4ccc(Br)cc4)nn3)[C@H](C)O2)[C@H](C)[C@@H](O[C@@H]2O[C@H](C)C[C@H](N(C)C)[C@H]2O)[C@](C)(O)C[C@@H](C)CN(C)[C@H](C)[C@H]2OC(=O)O[C@@]21C,1 µg/mL,1 µg/mL,2 µg/mL,0.06 µg/mL,64 µg/mL,4 µg/mL,32 µg/mL,128 µg/mL,32 µg/mL,1 µg/mL
CC[C@H]1OC(=O)[C@H](C)[C@@H](O[C@H]2C[C@@](C)(OC)[C@@H](OC(=O)NCc3cn(Cc4ccccc4Cl)nn3)[C@H](C)O2)[C@H](C)[C@@H](O[C@@H]2O[C@H](C)C[C@H](N(C)C)[C@H]2O)[C@](C)(O)C[C@@H](C)CN(C)[C@H](C)[C@H]2OC(=O)O[C@@]21C,1 µg/mL,4 µg/mL,4 µg/mL,0.06 µg/mL,64 µg/mL,8 µg/mL,16 µg/mL,128 µg/mL,32 µg/mL,2 µg/mL
CC[C@H]1OC(=O)[C@H](C)[C@@H](O[C@H]2C[C@@](C)(OC)[C@@H](OC(=O)NCc3cn(Cc4ccccc4)nn3)[C@H](C)O2)[C@H](C)[C@@H](O[C@@H]2O[C@H](C)C[C@H](N(C)C)[C@H]2O)[C@](C)(O)C[C@@H](C)CN(C)[C@H](C)[C@@H](OC(=O)NCc2ccccc2)[C@]1(C)O,0.125 µg/mL,0.25 µg/mL,0.016 µg/mL,< 0.002 µg/mL,32 µg/mL,0.25 µg/mL,32 µg/mL,16 µg/mL,16 µg/mL,0.25 µg/mL
CC[C@H]1OC(=O)[C@H](C)[C@@H](O[C@H]2C[C@@](C)(OC)[C@@H](OC(=O)NCc3cn(Cc4ccc(Cl)cc4)nn3)[C@H](C)O2)[C@H](C)[C@@H](O[C@@H]2O[C@H](C)C[C@H](N(C)C)[C@H]2O)[C@](C)(O)C[C@@H](C)CN(C)[C@H](C)[C@@H](OC(=O)NCc2ccccc2)[C@]1(C)O,0.25 µg/mL,0.25 µg/mL,0.25 µg/mL,< 0.002 µg/mL,32 µg/mL,0.25 µg/mL,32 µg/mL,32 µg/mL,16 µg/mL,0.125 µg/mL
